Assay results as given in paper PMC9424906 (Frontiers in Pharmacology, 2022).

Columns and labels:
ENT2 = settings: cited from earlier work
ENT1 = settings: cited from earlier work
[1] = system: mild to moderate COVID-19 patients at high risk of progression to severe disease; parameters: method as in https://www.fda.gov/media/154472/download; settings: ref https://www.fda.gov/media/154472/download; cited from earlier work
[2] = Bidirectional transport in Caco-2 monolayers; settings: human, Caco-2, pH 7.4
BCRP = biological target: T1, BCRP (Homo sapiens, UniProt Q9UNQ0); test: Bidirectional transport in MDCK-BCRP monolayers; format: in vitro ADME; settings: dog, pH 7.4; MDCK-BCRP cells; read-out: Efflux ratio of positive control
T1 construct: host or cells: MDCK (BCRP-MDCK)
T1 sequence (Q9UNQ0 1-655): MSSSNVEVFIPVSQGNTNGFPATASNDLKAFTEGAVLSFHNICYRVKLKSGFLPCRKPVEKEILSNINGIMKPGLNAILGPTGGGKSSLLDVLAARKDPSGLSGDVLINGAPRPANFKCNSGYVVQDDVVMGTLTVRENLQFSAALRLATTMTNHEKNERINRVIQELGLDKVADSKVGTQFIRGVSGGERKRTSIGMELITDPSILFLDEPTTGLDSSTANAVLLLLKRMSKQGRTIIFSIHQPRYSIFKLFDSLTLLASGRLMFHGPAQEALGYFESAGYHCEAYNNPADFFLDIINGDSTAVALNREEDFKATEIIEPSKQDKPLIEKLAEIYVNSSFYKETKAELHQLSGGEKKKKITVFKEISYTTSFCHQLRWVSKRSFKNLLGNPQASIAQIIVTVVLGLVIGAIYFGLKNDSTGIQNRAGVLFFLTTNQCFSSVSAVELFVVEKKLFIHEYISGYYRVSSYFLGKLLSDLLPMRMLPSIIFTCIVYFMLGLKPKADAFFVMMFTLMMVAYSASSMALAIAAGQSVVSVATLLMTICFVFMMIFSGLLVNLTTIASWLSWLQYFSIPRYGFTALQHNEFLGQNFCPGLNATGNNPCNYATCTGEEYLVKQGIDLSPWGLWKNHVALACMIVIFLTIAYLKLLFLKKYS
Protocol: Caco-2 (American Type Culture Collection), MDR1-MDCK (NIH), and BCRP-MDCK (transfected by Absorption Systems) cell monolayers were grown to confluence on collagen-coated, microporous membranes in 12-well assay plates. Caco-2 cells were cultured for 27 days, MDCK-MDR1 and MDCK-BCRP cells were cultured for 8 days prior to experiments. […] The experiment was carried out in Hanks’ balanced salt solution (HBSS) containing 10 mM HEPES and 15 mM glucose at pH 7.4. HBSS in the receiver chamber also contained 1% bovine serum albumin. Cells were first pre-incubated for 0.5 h in HBSS with or without the specific inhibitor (1 µM valspodar or 0.5 µM Ko143 for MDR1 and BCRP, respectively). […] Cell monolayers were dosed on the apical side (A to B) or basolateral side (B to A) and incubated at 37°C with 5% CO2 in a humidified incubator. Samples were taken from the donor and receiver chambers at 2 h. Each experiment was performed in duplicate. All samples were assayed by LC-MS/MS. The apparent permeability (Papp) and percent recovery were calculated as described previously ([Katoh et al., 2006]; [Xia et al., 2006]; [Li et al., 2008]).

MDR1 = test: in vitro; settings: dog, MDCK-MDR1, pH 7.4
[3] = system: EpiAirway human tracheobronchial epithelial tissues; settings: EpiAirway 3D HAE tissue model
[4] = system: SARS-CoV-2 (2019-nCoV/USA-WAl/2020); format: cell-based; settings: EpiAirway 3D HAE tissue model, 24 h
[5] = system: hospitalized COVID-19 patients; parameters: method as in Beigel et al., 2020a; settings: treatment group, ref Beigel et al., 2020a; cited from earlier work
[6] = system: SARS-CoV-2 (USA_WA1/2020); test: SARS-CoV-2 cytopathic effect (CPE) assay in Vero E6 cells; format: cell-based; settings: Severe acute respiratory syndrome coronavirus 2, Vero C1008, 72 h, read-out: EC50, inhibition of SARS-CoV-2 CPE
[7] = system: mild to moderate COVID-19 patients at risk of progression to severe disease; parameters: method as in Gottlieb et al., 2021; settings: early 3-day course, ref Gottlieb et al., 2021; cited from earlier work

SMILES: O=c1nc(NO)ccn1[C@@H]1O[C@H](CO)[C@@H](O)[C@H]1O [EIDD-1931, N-hydroxycytidine]
- Inhibitor of ENT2 (ENT2): inhibitors
- Inhibitor of ENT1 (ENT1): inhibitors

SMILES: CC(C)C(=O)OC[C@H]1O[C@@H](n2ccc(NO)nc2=O)[C@H](O)[C@@H]1O [EIDD-2801]
- Inhibitor of ENT2 (ENT2): inhibitors
- Reduction of progression to hospitalization of death compared to placebo [1]: 30%
- Inhibitor of ENT1 (ENT1): inhibitors

SMILES: Nc1nc(Cl)nc2c1ncn2[C@H]1C[C@H](O)[C@@H](CO)O1 [cladribine, reference compound]
- efflux ratio at 2 h [2]: 26
- efflux ratio at 2 h (BCRP): 153

SMILES: C[C@H]1O[C@@H](O[C@H]2[C@@H](O)C[C@H](O[C@H]3[C@@H](O)C[C@H](O[C@H]4CC[C@@]5(C)[C@H](CC[C@@H]6[C@@H]5C[C@@H](O)[C@]5(C)[C@@H](C7=CC(=O)OC7)CC[C@]65O)C4)O[C@@H]3C)O[C@@H]2C)C[C@H](O)[C@@H]1O [digoxin, reference compound]
- efflux ratio at 2 h [2]: 27
- efflux ratio at 2 h (MDR1): 110

SMILES: CCC(CC)COC(=O)[C@H](C)N[P@](=O)(OC[C@H]1O[C@@](C#N)(c2ccc3c(N)ncnn23)[C@H](O)[C@@H]1O)Oc1ccccc1 [remdesivir]
- Cytotoxicity [3]: did not exhibit any cytotoxicity
- Potency on viral titer (TCID50) at 24 h [4]: lower potency than EIDD-2801
- Reduction of time to recovery [5]: 33%
- EC50 [6]: 7.43 µM
- Reduction of progression to hospitalization or death [7]: 87%
